Assay results as given in patent publication US20050282788A1, “Pharmaceutical compositions comprising silicones and two solubilized active principles” (GALDERMA S.A., priority 2004, published 2005).

Legend:
[1] = Stability of calcitriol in ethanol (HPLC assay against a reference); assay type: physicochemical; conditions: 30 ppm calcitriol in absolute ethanol, 0.02% BHT
Description: (§1) The stability of calcitriol was tested in various solvents, including ethanol 100 and a 75%/25% ethanol 100/cyclomethicone mixture. a) Stability of Calcitriol in Ethanol: A 30 ppm solution of calcitriol in absolute ethanol to 100% is prepared in the presence of 0.02% of butylated hydroxytoluene (BHT). At the starting time (T0) the calcitriol concentration is taken to be 100%.

[2] = Stability of calcitriol in the (ethanol/cyclopentasiloxane) mixture (HPLC assay against a reference); assay type: physicochemical; conditions: 30 ppm calcitriol, 0.02% BHT
Description: as §1, with “b)” for “a)”, “the (Ethanol/Cyclopentasiloxane) Mixture” for “Ethanol:”, “BHT.” for “butylated hydroxytoluene (BHT).”, “(TO)” for “(T0)”

calcitriol concentration (T0 taken to be 100%) ([1]; +4° C., T1 week): 97.7%
calcitriol concentration (T0 taken to be 100%) ([1]; +4° C., T2 weeks): 98.6%
calcitriol concentration (T0 taken to be 100%) ([1]; +4° C., T3 weeks): 98.1%
calcitriol concentration (T0 taken to be 100%) ([1]; +4° C., T4 weeks): 97.7%
calcitriol concentration (T0 taken to be 100%) ([1]; +30° C., T2 weeks): 93.4%
calcitriol concentration (T0 taken to be 100%) ([1]; +30° C., T4 weeks): 93.0%
calcitriol concentration (T0 taken to be 100%) ([1]; −18° C., T1 week): 100.9%
calcitriol concentration (T0 taken to be 100%) ([1]; −18° C., T2 weeks): 100.5%
calcitriol concentration (T0 taken to be 100%) ([1]; −18° C., T3 weeks): 99.5%
calcitriol concentration (T0 taken to be 100%) ([1]; −18° C., T4 weeks): 99.5%
calcitriol concentration (T0 taken to be 100%) ([2]; +4° C., T2 weeks): 99.2%
calcitriol concentration (T0 taken to be 100%) ([2]; +4° C., T3 weeks): 99.6%
calcitriol concentration (T0 taken to be 100%) ([2]; +4° C., T4 weeks): 97.5%
calcitriol concentration (T0 taken to be 100%) ([2]; +30° C., T2 weeks): 93.8%
calcitriol concentration (T0 taken to be 100%) ([2]; +30° C., T4 weeks): 93.3%
calcitriol concentration (T0 taken to be 100%) ([2]; −18° C., T2 weeks): 100.4%
calcitriol concentration (T0 taken to be 100%) ([2]; −18° C., T3 weeks): 101.3%
calcitriol concentration (T0 taken to be 100%) ([2]; −18° C., T4 weeks): 99.2%
Structure (SMILES): C=C1/C(=C\C=C2/CCC[C@]3(C)[C@@H]([C@H](C)CCCC(C)(C)O)CC[C@@H]23)C[C@@H](O)C[C@@H]1O [calcitriol]
